The text below walks through data of patent publication US20240101599A1, “PEPTIDE, CELL GROWTH PROMOTER, PROTEIN PRODUCTION PROMOTER, CULTURE MEDIUM, CELL GROWTH METHOD USING PEPTIDE, AND PROTEIN PRODUCTION METHOD USING PEPTIDE” (Maruhachi Muramatsu, Inc., priority 2020, published 2024).

Where two headings read alike, the source gives them in different places. Peptide text beside a SMILES is read from it.

The test system of test [1] is serum-free floating CHO DP-12. The experiment in a line: Protein production test on AGK and GPP in floating cell system. Type of test: cell-based. The note with it: AGK 3.95 mM, GPP 4.40 mM + medium supplemented with vitamins and the like, ELISA. The procedure:
Peptides having the sequences of Ala-Gly-Lys (AGK) and Gly-Pro-Pro (GPP) were synthesized to prepare peptide solutions of 5.53 mM of Ala-Gly-Lys (AGK) and 6.16 mM of Gly-Pro-Pro (GPP).
5 mL of each of a basal medium, a medium supplemented with vitamins and the like (basal medium +a component supplemented with vitamins and the like), and each peptide solution was added to each well of a 24-well (Deep well) cassette of Micro-24 Bioreactor System (manufactured by Nihon Pall Corporation) to perform culture overnight under the conditions of 37° C., pH 7, and 650 rpm. On the next day, pH calibration was performed, and thereafter 2 mL of the cell suspension prepared at 3.5×10^5 cells/mL was added to each well of the 24-well (Deep well) cassette, seeded such that the cell density of the floating cells was 1×10^5 cells/mL (7 mL/well), and cultured in the following evaluation medium under culture conditions of 37° C., pH 7, 650 rpm, and dissolved oxygen of 30%.
• Basal medium • Medium supplemented with vitamins and the like (basal medium+component supplemented with vitamins and the like) • AGK (3.95 mM)+medium supplemented with vitamins and the like • GPP (4.40 mM)+medium supplemented with vitamins and the like
As a culture medium, a basal medium in which 200 nM of methotrexate, 10 μg/mL of insulin, 5.5 μg/mL of transferrin, 6.7 ng/mL of sodium selenite, 10 μL/mL of Anti-Clumping Agent, and 10 μL/mL of 10% Pluronic F68 were blended in a DMEM/F12 culture medium (Gibco) was used.
As the floating cells used, serum-free floating CHO DP-12 obtained by acclimating CHO DP-12 (ATCC, Cat. No. CRL-12445) to serum-free flotation and subculturing using a 100 mL volume Erlenmeyer flask and with a shaking culture device (Custom Bio Shaker CO2-BR-43FL, TAITEC CORPORATION) under the culture conditions of 37° C., 5% CO2, and a stirring speed of 125 rpm was used.
After the third day of culture, 150 μL of the culture medium was recovered in a 1.5 mL tube from each well of the 24-well (Deep well) cassette to perform a centrifugation operation (5,000 rpm, for 5 minutes), and the supernatant was recovered to measure the amount of produced protein by ELISA.

For test [2], the system named is serum-free floating CHO DP-12. The note with it: GEK 2.05 mM, DGP 1.11 mM + medium supplemented with vitamins and the like; for Amount of protein produced: ELISA.
Experimental: 5 mL of each of a DMEM/F12 basal medium, a medium supplemented with vitamins and the like (DMEM/F12 basal medium+a component supplemented with vitamins and the like), and each peptide solution was added to each well of a 24-well (Deep well) cassette of Micro-24 Bioreactor System (manufactured by Nihon Pall Corporation) to perform culture overnight under the conditions of 37° C., pH 7, and a stirring speed of 650 rpm. On the next day, pH calibration was performed, and thereafter 2 mL of the cell suspension prepared at 3.5×10^5 cells/mL was added to each well of the 24-well (Deep well) cassette, seeded such that the cell density of the floating cells was 1×10^5 cells/mL (7 mL/well), and cultured in the following evaluation medium under culture conditions of 37° C., pH 7, a stirring speed of 650 rpm, and dissolved oxygen of 30%.
• DMEM/F12 basal medium • Medium supplemented with vitamins and the like (basal medium+component supplemented with vitamins and the like) • GEK (2.05 mM)+medium supplemented with vitamins and the like • DGP (1.11 mM)+medium supplemented with vitamins and the like
As a culture medium, a DMEM/F12 basal medium in which 200 nM of methotrexate, 10 μg/mL of insulin, 5.5 μg/mL of transferrin, 6.7 ng/mL of sodium selenite, 10 μL/mL of Anti-Clumping Agent, and 10 μL/mL of 10% Pluronic F68 were blended in a DMEM/F12 culture medium (Gibco) was used.
After the third day of culture, 200 pμL of the culture medium was recovered in a 1.5 mL tube from each well of the 24-well (Deep well) cassette. 50 μL out of this was put in another 1.5 mL tube, and after adding 50 μL of trypan blue to sufficiently suspend, the viable cell count and the viability were measured using a cell counter (Countess II, manufactured by Life Technologies Corporation).
After the third day of culture, 150 μL out of 200 μL of the culture medium recovered from each well of the 24-well (Deep well) cassette was subjected to a centrifugation operation (5,000 rpm, for 5 minutes) in a 1.5 mL tube, and the supernatant was separately recovered to measure the amount of produced protein by ELISA.
A further test concerns CHO-K1. The experiment in a line: Cell growth test of each peptide on coating agent for 3 days. Type of test: cell-based. Also noted: Viability, 1 / Viability, 2 / Viability, 3 / Viability, Average: unit not given here. The note with it: 2.1 mM Gly-Glu-Lys, poly-L-lysine coating; for Cells cell count, Average / Viability, Average: average n=3, 2.2 mM Asp-Gly-Pro; for Cells cell count, 1 / Viability, 1: replicate 1, 2.2 mM Asp-Gly-Pro; for Cells cell count, 2 / Viability, 2: replicate 2, 2.2 mM Asp-Gly-Pro; for Cells cell count, 3 / Viability, 3: replicate 3, 2.2 mM Asp-Gly-Pro. The procedure: Peptides having the sequences of Gly-Glu-Lys (GEK) and Asp-Gly-Pro (DGP) were synthesized to prepare each peptide solution such that the concentration was a concentration at which the cell number increased the most within a range of 0 mM to 5 mM. In other words, Gly-Glu-Lys (GEK) was adjusted to 21 mM, and Asp-Gly-Pro (DGP) was adjusted to 22 mM, and an amount of 1/10 of the total culture medium volume was added to each well immediately before the cell culture test such that final concentrations were 2.1 mM and 2.2 mM, respectively.
Poly-L-lysine (Peptide Institute, Inc., Poly-L-Lysine Hydrochloride, code: 3075) was prepared to 0.1 mg/mL, and 200 μL was dispensed into each well of a 24-well plate, which was left to stand in an incubator at 37° C. for 2 hours. After removing the residual liquid with an aspirator, rinsing was performed with distilled water, irradiation was performed with a UV lamp in a clean bench without a lid, and drying was performed overnight to sterilize. A cell suspension prepared such that CHO-K1 (RIKEN BioResource Research Center, cell number: RCB2330) was at 4×10^4 cells/mL was seeded in a 24-well plate at 500 μL/well and cultured in an incubator at 37° C. and 5% CO2 for 24 hours. As a culture medium, an MEMα culture medium (Gibco) containing 10% FBS was used.
After removing the culture medium from each well and washing with the MEMα culture medium (500 μL), 450 μL of a new MEMα culture medium was dispensed into each well, and each peptide solution (50 μL) was added (total 500 μL/well) to perform culture for 3 days. The cells were recovered to count the cell number. A similar culture test was performed using a system containing neither peptide nor FBS as a comparative sample.
The culture medium in each well was recovered in a 1.5 mL tube to be rinsed with 200 μL of MEMα, and the rinsed liquid was also recovered in the same 1.5 mL tube. Thereafter, 100 μL of trypsin was added and incubated for 3 minutes. After rinsing with 300 μL of MEMα containing 10% FBS, the rinsed liquid was also recovered in the same 1.5 mL tube. After rinsing again with 200 μL of MEMa containing 10% FBS, the rinsed liquid was also recovered in the same 1.5 mL tube.
A centrifugation operation was performed on the cells recovered in the 1.5 mL tube. The centrifugation conditions were 1,000 rpm, 10 minutes, and 4° C.
The supernatant was removed, and 300 μL of Cold PBS (phosphate buffered saline) was added to perform a centrifugation operation under the same conditions. The present operation was repeated twice.
Suspension was carried out with 100 μL of Binding Buffer, and 2 μL of propidium iodide (PI) was added and stirred in the tube to cause a reaction for 15 minutes at room temperature and with light shielding. Thereafter, the viable cell count and the viability were measured with a flow cytometer.
The above preparation, culture, and measurement were performed with n=3. Table 13 and FIG. 13 show the viable cell count in each peptide solution, and Table 14 and FIG. 14 show the cell viability in each peptide solution.

For the compound `C[C@H](N)C(=O)NCC(=O)N[C@@H](CCCCN)C(=O)O` [AGK, Ala-Gly-Lys] (H-Ala-Gly-Lys-OH; N-terminus and C-terminus assumed), the “Amount of protein produced” value in test [1] (Day 3) amounted to 17.74 mg/L; in test [1] (Day 4) it was 31.36 mg/L; in test [1] (Day 5), 49.43 mg/L; in test [1] (Day 6) it was 65.58 mg/L; in test [1] (Day 7), 73.46 mg/L.
Take `NCCCC[C@H](NC(=O)[C@H](CCC(=O)O)NC(=O)CN)C(=O)O` [GEK, Gly-Glu-Lys] (H-Gly-Glu-Lys-OH; N-terminus and C-terminus assumed): the cell number in test [2] (Day 0) is on record as 0.10 ×10^6cells/ml. For the same compound, in test [2] (Day 3), the cell number is listed as 1.73 ×10^6cells/ml and the “Amount of protein produced” value is on record as 26.32 mg/L. Besides, in test [2] (Day 4), the cell number is reported as 2.40 ×10^6cells/ml and the “Amount of protein produced” value stood at 54.96 mg/L. For the same compound, in test [2] (Day 5), the cell number was 2.65 ×10^6cells/ml and the “Amount of protein produced” value was 75.54 mg/L. Moreover, in test [2] (Day 6), the cell number is reported as 2.64 ×10^6cells/ml and the “Amount of protein produced” value was determined as 98.46 mg/L. In test [2] (Day 7), the cell number is given as 3.05 ×10^6cells/ml and the “Amount of protein produced” value is 127.08 mg/L. Further, in the test on CHO-K1, the “Cells cell count, Average” value is 19.35 ×10^4; the “Viability, Average” value is reported as 94.5; the “Cells cell count, 1” value is listed as 17.94 ×10^4; the “Viability, 1” value came out at 94.7. In addition, in the test on CHO-K1, the “Cells cell count, 2” value is given as 19.72 ×10^4; the “Viability, 2” value was 95.1; the “Cells cell count, 3” value is listed as 20.39 ×10^4; the “Viability, 3” value is 93.8.
Take Asp-Gly-Pro [DGP]: in test [2] (Day 0), the Viability is given as 98.0% and the cell number is reported as 0.10 ×10^6cells/ml. In test [2] (Day 3), the Viability came to 97.50%, the cell number is recorded as 1.15 ×10^6cells/ml and the “Amount of protein produced” value worked out at 19.86 mg/L. In addition, in test [2] (Day 4), the Viability was 97.50%, the cell number is recorded as 2.52 ×10^6cells/ml and the “Amount of protein produced” value came to 43.99 mg/L. In addition, in test [2] (Day 5), the Viability stood at 94.50%, the cell number is recorded as 2.58 ×10^6cells/ml and the “Amount of protein produced” value is 63.65 mg/L. In test [2] (Day 6), the Viability is listed as 87.00%, the cell number is 3.50 ×10^6cells/ml and the “Amount of protein produced” value is listed as 82.54 mg/L. Further, in test [2] (Day 7), the Viability worked out at 81.50%, the cell number is reported as 3.01 ×10^6cells/ml and the “Amount of protein produced” value was found to be 104.75 mg/L. In addition, in the test with CHO-K1, the “Cells cell count, Average” value is listed as 11.99 ×10^4; the “Viability, Average” value came to 78.5; the “Cells cell count, 1” value is 11.69 ×10^4; the “Viability, 1” value is given as 77.9. Moreover, in the test with CHO-K1, the “Cells cell count, 2” value is recorded as 10.47 ×10^4; the “Viability, 2” value stood at 75.6; the “Cells cell count, 3” value is recorded as 13.82 ×10^4; the “Viability, 3” value stood at 82.0.
On to Gly-Pro-Pro [GPP], for which the “Amount of protein produced” value is 14.95 mg/L in test [1] (Day 3); 32.30 mg/L in test [1] (Day 4); 52.53 mg/L in test [1] (Day 5); 67.01 mg/L in test [1] (Day 6); 80.86 mg/L in test [1] (Day 7).
